One may read the IC50 as the concentration that inhibits the measured activity by half.

Series [1] in a line: Solubility. In kind it is physicochemical.
The test system of series [2] is tumor cells. Nature of the series: Growth inhibition of tumor cells, overall result of (B) and (C). In kind it is cell-based. Conditions: from the results of (B) and (C). As for the experimental part:
(§1) A T24 cell suspension ([…]) prepared by suspending T24 cells in a medium comprising F10 medium (GIBCO Co., Ltd.), […] fetal calf serum, 100 units/ml penicillin and 100 μg/ml streptomycin (hereinafter referred to as medium A) was put into wells of a 96-well microtiter plate in an amount of 0.1 ml per well. After incubation at 37° C. for 20 hours in a […], 0.05 ml of a sample appropriately diluted with medium A was added to each well. The cells were further cultured at 37° C. for 72 hours in the CO2 -incubator and the culture supernatant was removed. To the residue was added a medium comprising medium A and 0.02% Neutral Red in an amount of 0.1 ml per well, followed by culturing at 37° C. for one hour in the CO2 -incubator, whereby the cells were stained. After the culture supernatant was removed, the residue was washed once with physiological saline.
(§2) Then, the pigment was extracted with 0.001N hydrochloric acid/30% ethanol and absorbance at 550 nm was measured with a microplate reader. By comparing the absorbance of intact cells with those of the cells treated with a test compound at known concentrations, the concentration of the test compound at which the growth of the cells is inhibited by 50% (IC50) was determined.
(§3) IC50 was determined in the same manner as in the case of T24 cells except that a suspension of HeLaS3 cells (3×10^4 cells/ml) prepared by suspending HeLaS3 cell medium comprising MEM medium (Nissui Pharmaceutical Co., Ltd.) and 2 mM glutamine was used.

Series [3] concerns T24 cells. Nature of the series: Growth inhibition against T24 cells (Neutral Red staining). The series is classed as cell-based. As to conditions: Homo sapiens, T-24, 72 hours. As for the experimental part: as §1, §2
Series [4] has as its system Bacillus subtilis No. 10707. Nature of the series: Antibacterial activity, agar dilution method (pH 7.0). The series is classed as cell-based. Conditions: read-out: Minimum Inhibitory Concentration. Here is the method: (§4) The minimum inhibitory concentration (MIC) against various bacteria was determined by the agar dilution method (pH 7.0).
On the technique in general: Agar dilution tests growth on a series of plates holding different concentrations.

In series [5] the test system is Klebsiella pneumoniae ATCC 10031. The description is as above. Conditions: ATCC10031, read-out: Minimum Inhibitory Concentration. The series is classed as cell-based. As for the experimental part: as §4
The subject of series [6] is Escherichia coli ATCC 26. Described as above. The series is classed as cell-based. As to conditions: ATCC26, read-out: Minimum Inhibitory Concentration. Here is the method:
as §4

Series [7] relates to Staphylococcus aureus ATCC 6538P. The description is as above. The series is classed as cell-based. Conditions: ATCC6538P, read-out: Minimum Inhibitory Concentration. Here is the method:
as §4

For series [8], the system named is Salmonella typhi ATCC 9992. The series is described as above. Conditions: Salmonella enterica, pH 7, read-out: Minimum Inhibitory Concentration. In kind it is cell-based. Here is the method: as §4
The subject of series [9] is HeLaS3 cells. Nature of the series: Growth inhibition against HeLaS3 cells. The series is classed as cell-based. Conditions: Homo sapiens, HeLa S3, 72 hours. As for the experimental part:
as §1, §2, §3

Where [10] appears, read: chloroform, dimethylsulfoxide, methanol, ethyl acetate and acetone.

In brackets after ≈: the same amount, converted by molar mass.

On to `CCCC1OC1(C)c1cc(=O)c2c(CC(=O)O)cc3cc4c(c(O)c3c2o1)C(=O)CCC4OC(C)=O` (stereo not drawn) [DC115A1], for which the Solubility result is “Soluble” in series [1] (setting [10]); “sparingly soluble” in series [1] (water and n-hexane). Moreover, the “inhibition of growth of tumor cells” value in series [2] was “inhibit the growth of tumor cells”. Also, the IC50 in series [3] is 0.17 µg/mL (≈ 0.344 µM); in series [9], 0.22 µg/mL (≈ 0.445 µM). The MIC in [4] is 10 µg/mL (≈ 20.2 µM); in series [5], > 100 µg/mL; in series [6], > 100 µg/mL; in series [7], 5.2 µg/mL (≈ 10.5 µM); in [8], > 100 µg/mL.

As for `CCC1OC1(C)c1cc(=O)c2c(CC(=O)O)cc3cc4c(c(O)c3c2o1)C(=O)CCC4OC(C)=O` (stereo not drawn) [DC115A2], the Solubility result is given as “Soluble” in series [1] (setting [10]); “sparingly soluble” in [1] (water and n-hexane). For the same compound, in series [2], the “inhibition of growth of tumor cells” value is recorded as “inhibit the growth of tumor cells”. For the same compound, the values for the IC50 in series [3] and in series [9] were 0.11 µg/mL (≈ 0.229 µM) and 0.19 µg/mL (≈ 0.395 µM), respectively. In addition, the MIC in [4] was 10 µg/mL (≈ 20.8 µM); in series [5], 10 µg/mL (≈ 20.8 µM); in series [6], 83 µg/mL (≈ 173 µM); in [7], 2.6 µg/mL (≈ 5.41 µM); in series [8] it was > 100 µg/mL.

For `CC=CC1OC1(C)c1cc(=O)c2c(CC(=O)O)cc3cc4c(c(O)c3c2o1)C(=O)CCC4OC(C)=O` (stereo not drawn) [DC115A3], the Solubility result in series [1] (setting [10]) is reported as “Soluble”; in [1] (water and n-hexane), “sparingly soluble”. Further, the “inhibition of growth of tumor cells” value in [2] is recorded as “inhibit the growth of tumor cells”. Also, the results for the IC50 in series [3] and in series [9] were 0.14 µg/mL (≈ 0.284 µM) and 0.42 µg/mL (≈ 0.853 µM), respectively. For the same compound, the MIC was found to be 1.3 µg/mL (≈ 2.64 µM) in series [4]; 5.2 µg/mL (≈ 10.6 µM) in series [5]; 21 µg/mL (≈ 42.6 µM) in series [6]; 0.3 µg/mL (≈ 0.609 µM) in [7]; 83 µg/mL (≈ 169 µM) in series [8].

The values are drawn from patent US5066817A, “DC115A compounds produced by streptomyces sp” (Kyowa Hakko Kogyo Co., Ltd., priority 1989, dated 1991).
